Drawing on patent publication US10174005B2, “Fused pyrimidines as inhibitors of p97 complex” (Cleave Biosciences, Inc., priority 2014, dated 2019), this text covers IC50 for 18 compounds.

Test [1] concerns the target p97 (Homo sapiens, UniProt P55072). The test can be described thus: P97 ATPase biochemical assay (ADP Glo). As to conditions: 20 nM p97, 20 μM ATP, 37° C. for 15 minutes. As to the method:
The ATPase assay is performed according the following protocol: Purified enzyme (20 nM p97), substrate (20 μM ATP) and a dose titration of compounds are mixed in buffer (50 mM TRIS pH 7.5, 20 mM MgCl2, 0.02% TX-100, 1 mM DTT, 0.2% (v/v) glycerol) and incubated at 37° C. for 15 minutes. The reaction is terminated and the level of product generated is measured using the ADP Glo Assay Kit (Promega, Madison Wis.). Plotting product generated versus compound concentration and using a four-parameter fit model generates an IC50 value for each compounds.
The p97 assay is an initial screening assay used to determine inhibitory activity of the fused pyrimidine compounds of the invention against the p97 complex. As discussed above, inhibition of activity of the p97 proteosome complex can enable apoptosis and cause elimination of neoplastic cells (cancer cells). The method follows that of Christianson in Nat. Cell Biol., (2011) 14:93.
Assay Buffer is a mixture of 50 mM TRIS pH 7.5, 20 mM MgCl2, 0.02% TX-100, 1 mM DTT and 0.2% (v/v) Glycerol. The well plate is Platetype: Corning 3674, 384w plate. The identification kit is an ADP glo kit (Promega): stop buffer, detection reagent.
Serial dilute compound in DMSO in a 1:3.33-fold 10 point serial dilution.
in each well of 384w plate add the following reagents:
0.5 μL compound serial diluted in DMSO (Final Conc. 10%)
2 μL ATP (Final Conc.=20 uM, diluted in assay buffer)
2.5 μL p97 (Final Conc.=20 nM, diluted in assay buffer)
Incubate at 37 deg C. for 15 min.
Add 5 μL of stop buffer, incubate at RT for 40 min.
Add 10 μL of detection reagent, incubate at RT for 30 min.
Read luminescence on Envision plate reader.
Upon obtaining the data from the luminescence reading, the data may be analyzed as follows:
Normalize luminescence data using no enzyme (full inhibition) and no compound (no inhibition) controls. Plot normalized luminescence data against log-transformed concentration values and fit to a sigmoidal curve to determine IC50 values (done in Collaborative Drug Discovery software).
A general note: ADP-Glo first removes unused ATP, then detects ADP through luciferase.

For test [2], the system named is A549 cells. The experiment in a line: Cultured cancer cell viability assay (cell titer glo, CTG) in A549 cells. It counts as cell-based. As to conditions: Homo sapiens, read-out: A549 CTG IC50. The text has this:
Anti-tumor effects are monitored in cultured cancer cells after several days of compound treatment. The cell titer glo assay (Promega) measures the amount of ATP present as a proxy for cellular viability. Cellular counting is done using high-content microscopy followed by image analysis. A hanging drop 3D-culture system (3D Biomatrix) is used followed by cell titer glo to measure growth in a tumor-like environment.
The cellular assay provides information about the anti-neoplastic activity of the compounds of the invention. The compounds are tested against cultured cancer cells to determine whether or not the compounds of the invention are capable of intersecting with cancer cells to minimize or eliminate such cells. The assay involves establishing colonies of such cells and then treating them with the test compound under specified conditions and analysis regima to determine results.
(§1) Cell Plating: • Seed cells ˜16 hrs prior to compound treatment • Plate 25 μL of A549 cells in every well of 384-well plate using multidrop. • Two (2) black plates for IF at 2500 cells/well • Let plate sit at room temp for 10-15 minutes prior to putting in incubator to • allow cells to stick in middle of plate. • One (1) white plate for viability at 500 cells/well.
(§2) Day 2 Treatment of Cultured Cells with Test Compounds • Treat Cells: • Serial dilute compounds with a 10 point 2-fold serial dilution in DMSO to make 250× stock compound solution • Dilute compounds 1:125 in cell culture media to make a 2× solution Add • 25 μl of dilution compounds to cell plates in well duplicates Put cells back in incubator (6 hr incubation for black plates, 72 hr incubation for white plates).
Viability Assay: • Thaw an aliquot of frozen cell titer glo (Promega G7572) at room temperature. • Add 45 mL of NaCl/PBS solution to 5 ml of cell titer glo (10×). • Remove white plates from incubator, leave at room temp for 30 minutes. • Add 25 μl of diluted cell titer glo to each well. • Shake plate for >1 minute. • Incubate plate for >5 minutes to stabilize luminescence. • Luminescence is stable for up to 3 hours. • Read luminescence on plate reader
A general note: Cellular ATP, detected with luciferase, serves as a proxy for viable cell number.

Test [3] concerns K48-Ub (lysine-48 chain linkage of poly-ubiquitin) in A549 cells. The experiment in a line: A549 K48-Ub accumulation, immunofluorescence high-content imaging. It counts as cell-based. As to conditions: Homo sapiens, 6 hr incubation. As to the method:
Image-analysis is used to generate quantitative data from these assays that can be fit to a four-parameter sigmoid curve to derive IC50 values. Substrates of the ubiquitin-proteasome system, such as p53, are monitored after tumor cell lines are incubated with compounds for several hours. Accumulation of these proteins indicates an inhibition of proteasome-mediated degradation. Accumulation of lysine-48 chain linkage of poly-ubiquitin is also monitored by immunofluorescence as an indicator of ubiquitin-proteasome system inhibition. Both LC3 and SQSTM1 are mediators of autophagy. The localization and amounts of these proteins are monitored by immunofluorescence and report on the activity and inhibition of autophagy in response to p97 inhibition.
as §1, §2
Fix/Stain Black Plates: • Incubate cells in black plates with compound at 37 deg C. for 6 hrs. add 15 μL of 16% Paraformaldehyde (PFA) directly into media of each well, incubate at room temp for 5 min, flick plate and wash in 50 μL of PBS block in 50 μL of Blocking Buffer for 30 minutes (can go up to several hours) • Blocking buffer: 1×PBS, 1% BSA, 0.3% Triton-X 100, Hoechst (1:10,000) incubate in 25 μL of primary antibody in blocking buffer at 4 deg C. over night
Secondary Antibodies: • AlexaFluor488 Goat anti-Rabbit 1:2,000 (Life Tech A11008) • AlexaFluor555 Goat anti-Mouse 1:2.000 (Life Tech A21422)
Day 3/4 • Black Plate Staining (cont): • wash black plates 3× in 50 μL PBS (˜5 min each) incubate in 25 μl of secondary antibody (1:2,000) in blocking buffer for 1-2 hrs at room temp (alexafluor488-anti-Rabbit/alexafluor555-anti-Mouse) • wash 4× in 50 μL PBS (˜5 min each) • leave plates in PBS for imaging • clean bottom of plates with 70% EtOH
Imaging: • Image plates in high content microscope with 405 nm, 488 nm and 555 nm filters
Data Analysis: • Nuclear counts and cellular intensities of each markers are measured using Hoechst as a nuclear marker with an automated image analysis protocol using Matlab software (Math Works)

Setting [4] is: A549 cells, 72 hr incubation, cell titer glo.

Read-outs that look alike come from different tables or passages of the source.

Usually IC50 stands for the concentration that inhibits the measured activity by half.

p97, sequence (P55072 whole entry): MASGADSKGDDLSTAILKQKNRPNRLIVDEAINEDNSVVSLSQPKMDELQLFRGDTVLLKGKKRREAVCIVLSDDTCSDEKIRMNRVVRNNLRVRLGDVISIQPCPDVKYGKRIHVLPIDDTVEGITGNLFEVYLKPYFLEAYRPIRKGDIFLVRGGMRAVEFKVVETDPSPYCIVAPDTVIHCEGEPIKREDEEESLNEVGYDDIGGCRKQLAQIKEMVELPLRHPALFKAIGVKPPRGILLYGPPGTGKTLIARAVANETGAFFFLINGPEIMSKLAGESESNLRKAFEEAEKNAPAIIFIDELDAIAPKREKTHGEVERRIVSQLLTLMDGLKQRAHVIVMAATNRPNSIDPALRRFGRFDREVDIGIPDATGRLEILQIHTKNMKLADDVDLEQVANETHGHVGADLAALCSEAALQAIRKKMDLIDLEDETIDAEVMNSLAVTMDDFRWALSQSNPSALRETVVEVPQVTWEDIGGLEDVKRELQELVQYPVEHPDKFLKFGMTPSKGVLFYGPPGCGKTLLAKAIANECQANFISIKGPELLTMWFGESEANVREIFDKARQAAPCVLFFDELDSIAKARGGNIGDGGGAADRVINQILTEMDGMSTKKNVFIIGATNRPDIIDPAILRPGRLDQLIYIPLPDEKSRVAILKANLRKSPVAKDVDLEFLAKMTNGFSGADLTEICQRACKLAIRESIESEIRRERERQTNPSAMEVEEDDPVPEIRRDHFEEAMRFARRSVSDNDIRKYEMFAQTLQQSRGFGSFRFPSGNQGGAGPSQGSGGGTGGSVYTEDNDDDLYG

As to `Cc1oc2c(C(N)=O)cccc2c1-c1nc2c(c(NCc3ccccc3)n1)CCCC2` [FF35, 3-(4-(benzylamino)-5,6,7,8-tetrahydroquinazolin-2-yl)-2-methylbenzofuran-7-carboxamide], the IC50 in test [1] is below 30 nM; in test [2] (setting [4]), below 3000 nM; in test [3], below 3000 nM.
`Cc1cc2c(C(N)=O)cccc2n1-c1nc(NCc2ccccc2)c2c(n1)C(C)CNC2` (stereo not drawn) [FF19, 1-(4-(benzylamino)-8-methyl-5,6,7,8-tetrahydropyrido[4,3-d]pyrimidin-2-yl)-2-methyl-1H-indole-4-carboxamide]: the IC50 in test [1] was below 100 nM; in test [2] (setting [4]) it was below 3000 nM; in test [3] it was below 1000 nM.
In test [1], `CN1CCCc2nc(-n3ncc4c(C(N)=O)cccc43)nc(NCc3cccc(F)c3)c21` [FF11, 1-(4-((3-fluorobenzyl)amino)-5-methyl-5,6,7,8-tetrahydropyrido[3,2-d]pyrimidin-2-yl)-1H-indazole-4-carboxamide] returned an IC50 below 100 nM.
`Cc1cc2c(C(N)=O)cccc2n1-c1nc(NCc2ccccc2)c2c(n1)OCCC2` [FF06, 1-(4-(benzylamino)-6,7-dihydro-5H-pyrano[2,3-d]pyrimidin-2-yl)-2-methyl-1H-indole-4-carboxamide]: the IC50 in test [1] is below 30 nM; in test [2] (setting [4]) it was below 1000 nM; in test [3], below 1000 nM.
Consider `Cc1[nH]c2c(C(N)=O)cccc2c1-c1nc(NCc2ccccc2)c2c(n1)OCCC2` [FF27, 3-(4-(benzylamino)-6,7-dihydro-5H-pyrano[2,3-d]pyrimidin-2-yl)-2-methyl-1H-indole-7-carboxamide], for which the values for the IC50 in test [1], in test [2] (setting [4]) and in test [3] were below 100 nM, below 3000 nM and below 3000 nM, respectively.
`Cc1cc2c(C(N)=O)cccc2n1-c1nc2c(c(NCc3ccccc3)n1)CCCCC2` [FF18, 1-(4-(benzylamino)-6,7,8,9-tetrahydro-5H-cyclohepta[d]pyrimidin-2-yl)-2-methyl-1H-indole-4-carboxamide]: the IC50 in test [1] is below 30 nM; in test [2] (setting [4]), below 1000 nM; in test [3], below 3000 nM.
Take `NC(=O)c1cccc2c1cnn2-c1nc2c(c(NCc3ccccc3)n1)CCCC2` [FF03, 1-(4-(benzylamino)-5,6,7,8-tetrahydroquinazolin-2-yl)-1H-indazole-4-carboxamide]: the IC50 was below 30 nM in test [1], below 1000 nM in test [2] (setting [4]) and below 1000 nM in test [3].
As for `NC(=O)c1cccc2c1cnn2-c1nc2c(c(NCc3ccccc3)n1)CNCC2` [FF33, 1-(4-(benzylamino)-5,6,7,8-tetrahydropyrido[4,3-d]pyrimidin-2-yl)-1H-indazole-4-carboxamide], the IC50 in test [1] was below 1000 nM.
On to `NC(=O)c1cccc2c1cnn2-c1nc(NCc2cccc(F)c2)c2c(n1)OCCC2` [FF16, 1-(4-((3-fluorobenzyl)amino)-6,7-dihydro-5H-pyrano[2,3-d]pyrimidin-2-yl)-1H-indazole-4-carboxamide], for which the IC50 is below 30 nM in test [1] and below 10000 nM in test [2] (setting [4]).
As for `COc1nc2c(C(N)=O)cccc2n1-c1nc(NCc2cccc(F)c2)c2c(n1)OCCC2` [FF15, 1-(4-((3-fluorobenzyl)amino)-6,7-dihydro-5H-pyrano[2,3-d]pyrimidin-2-yl)-2-methoxy-1H-benzo[d]imidazole-4-carboxamide], the IC50 is below 30 nM in test [1] and below 3000 nM in test [2] (A549, 72 h).
In test [1], `NC(=O)c1cccc2c1cnn2-c1nc2c(c(NCc3ccccc3)n1)COCC2` [FF04, 1-(4-(benzylamino)-7,8-dihydro-5H-pyrano[4,3-d]pyrimidin-2-yl)-1H-indazole-4-carboxamide] displayed an IC50 below 300 nM.
Take `Cc1cc2c(CN)cccc2n1-c1nc(NCc2ccccc2)c2c(n1)OCCC2` [FF31, 2-(4-(aminomethyl)-2-methyl-1H-indol-1-yl)-N-benzyl-6,7-dihydro-5H-pyrano[2,3-d]pyrimidin-4-amine]: the IC50 in test [1] is below 300 nM.
Consider `NC(=O)c1cccc2c1cc(CO)n2-c1nc2c(c(NCc3ccccc3)n1)CCCN2` [FF17, 1-(4-(benzylamino)-5,6,7,8-tetrahydropyrido[2,3-d]pyrimidin-2-yl)-2-(hydroxymethyl)-1H-indole-4-carboxamide], for which the IC50 in test [1] was below 30 nM; in test [2] (setting [4]), below 1000 nM.
Compound `Cc1oc2c(C(N)=O)cccc2c1-c1nc2c(c(NCc3cccc(F)c3)n1)COCC2` [FF22, 3-(4-((3-fluorobenzyl)amino)-7,8-dihydro-5H-pyrano[4,3-d]pyrimidin-2-yl)-2-methylbenzofuran-7-carboxamide] yielded a half-inhibitory concentration (IC50) in test [1] below 1000 nM.
In test [1], `Cc1cc2c(C(N)=O)cccc2n1-c1nc(NCc2ccccc2)c2c(n1)C(C)CN(C)C2` (stereo not drawn) [FF13, 1-(4-(benzylamino)-6,8-dimethyl-5,6,7,8-tetrahydropyrido[4,3-d]pyrimidin-2-yl)-2-methyl-1H-indole-4-carboxamide] returned an IC50 below 100 nM.
Regarding `Cc1cc2c(C(N)=O)cccc2n1-c1nc2c(c(NCc3ccccc3)n1)CCNCC2` [FF20, 1-(4-(benzylamino)-6,7,8,9-tetrahydro-5H-pyrimido[4,5-d]azepin-2-yl)-2-methyl-1H-indole-4-carboxamide], the IC50 is below 300 nM in test [1] and below 3000 nM in test [2] (A549, 72 h).
Consider `Cc1[nH]c2ccccc2c1-c1nc2c(c(NCc3ccccc3)n1)CCCC2` [FF36, N-benzyl-2-(2-methyl-1H-indol-3-yl)-5,6,7,8-tetrahydroquinazolin-4-amine], for which the IC50 in test [2] (setting [4]) and in test [3] was below 10000 nM each time.
In the case of `NC(=O)c1cccc2c1cnn2-c1nc2c(c(NCc3cccc(F)c3)n1)CCCC2` [FF14, 1-(4-((3-fluorobenzyl)amino)-5,6,7,8-tetrahydroquinazolin-2-yl)-1H-indazole-4-carboxamide], the figures for the IC50 in test [1] and in test [2] (setting [4]) were below 100 nM and below 3000 nM, respectively.
